Test results: ChEMBL document CHEMBL5046300, “Potent Bactericidal Antimycobacterials Targeting the Chaperone ClpC1 Based on the Depsipeptide Natural Products Ecumicin and Ohmyungsamycin A” (2022)
Converted amounts (≈) assume the structure as drawn. The source made the active and inactive calls. The calls are words filed in the database; no cut-off is given here. Where a SMILES comes first, the peptide text is derived from it. Bridges are numbered along the chain shown (N, C = ends). [ ]: non-standard residue; d: D form. NMeW = CN[C@@H](Cc1c[nH]c2ccccc12)C(=O)O; Hyp = O=C(O)[C@@H]1C[C@@H](O)CN1; NMeChg = CN[C@H](C(=O)O)C1CCCCC1; NMeT = CN[C@H](C(=O)O)[C@@H](C)O; NMeD = CN[C@@H](CC(=O)O)C(=O)O; NMeL = CN[C@@H](CC(C)C)C(=O)O; NMeNva = CCC[C@H](NC)C(=O)O; NMeV = CN[C@H](C(=O)O)C(C)C; NMeS = CN[C@@H](CO)C(=O)O; Sar = CNCC(=O)O

Key:
[1] = system: Mycobacterium tuberculosis; assay: Antimycobacterial activity against Mycobacterium tuberculosis mc2 6230 measured after 7 days; format: functional; settings: mc2 6230, 168 h, time 7 day
[2] = system: Mycobacterium tuberculosis; assay: Antimycobacterial activity against Mycobacterium tuberculosis mc2 6230 assessed as log reduction in bacteria measured up to 21 days by Time kill assay; format: functional, organism-based; settings: time day <=21
[3] = system: Mycobacterium tuberculosis; assay: Antibacterial activity against Mycobacterium tuberculosis mc2 6230 assessed as reduction in viable cells at 10 times MIC measured for 42 days in solid media by time kill assay; format: functional; settings: time 42.0 day

`CN[C@H](C(=O)N[C@H](C(=O)N[C@@H]1C(=O)N(C)[C@@H]([C@@H](C)O)C(=O)N[C@@H](C(C)C)C(=O)N(C)[C@@H](CC(C)C)C(=O)N[C@@H](C(C)C)C(=O)N(C)[C@@H](CC(=O)O)C(=O)N(C)[C@@H](Cc2c[nH]c3ccccc23)C(=O)N[C@@H](C(C)C)C(=O)N[C@@H](Cc2ccccc2)C(=O)N[C@@H](C(C)C)C(=O)O[C@@H]1C)C(C)C)C(C)C` (H-[NMeV]VT[NMeT]V[NMeL]V[NMeD][NMeW]VFV; ester 3-C) showed an MIC [1] of 32 µM (≈ 45.7 µg/mL).
In the case of `CCC[C@H]1C(=O)N(C)[C@@H](Cc2c[nH]c3ccccc23)C(=O)N[C@@H](C(C)C)C(=O)N[C@@H](Cc2ccccc2)C(=O)N[C@@H](C(C)C)C(=O)O[C@H](C)[C@H](NC(=O)[C@@H](NC(=O)[C@@H](NC)C(C)C)C(C)C)C(=O)N(C)[C@@H]([C@@H](C)O)C(=O)N[C@@H](C(C)C)C(=O)N(C)[C@@H](CC(C)C)C(=O)N[C@@H](C(C)C)C(=O)N1C` (H-[NMeV]VT[NMeT]V[NMeL]V[NMeNva][NMeW]VFV; ester 3-C), the MIC [1] is reported as 0.5 µM (≈ 0.706 µg/mL).
For `CN[C@H](C(=O)N[C@H](C(=O)N[C@@H]1C(=O)N(C)[C@@H]([C@@H](C)O)C(=O)N[C@@H](C(C)C)C(=O)N(C)[C@@H](CC(C)C)C(=O)N[C@@H](C(C)C)C(=O)N(C)[C@@H](C(C)C)C(=O)N(C)[C@@H](Cc2c[nH]c3ccccc23)C(=O)N[C@@H](C(C)C)C(=O)N[C@@H](Cc2ccccc2)C(=O)N[C@@H](C(C)C)C(=O)O[C@@H]1C)C(C)C)C(C)C` (H-[NMeV]VT[NMeT]V[NMeL]V[NMeV][NMeW]VFV; ester 3-C), the MIC [1] was 0.25 µM (≈ 0.353 µg/mL) and the Activity [2] was “Active”.
For `CN[C@H](C(=O)N[C@H](C(=O)N[C@@H]1C(=O)N(C)[C@@H]([C@@H](C)O)C(=O)N[C@@H](C(C)C)C(=O)N(C)[C@@H](CC(C)C)C(=O)N[C@@H](C(C)C)C(=O)N(C)[C@@H](C2CCCCC2)C(=O)N(C)[C@@H](Cc2c[nH]c3ccccc23)C(=O)N[C@@H](C(C)C)C(=O)N[C@@H](Cc2ccccc2)C(=O)N[C@@H](C(C)C)C(=O)O[C@@H]1C)C(C)C)C(C)C` (H-[NMeV]VT[NMeT]V[NMeL]V[NMeChg][NMeW]VFV; ester 3-C), the MIC [1] was 0.5 µM (≈ 0.726 µg/mL).
With `CN[C@H](C(=O)N[C@H](C(=O)N[C@@H]1C(=O)N(C)[C@@H]([C@@H](C)O)C(=O)N[C@@H](C(C)C)C(=O)N(C)[C@@H](CC(C)C)C(=O)N[C@@H](C(C)C)C(=O)N2C[C@H](O)C[C@H]2C(=O)N(C)[C@@H](Cc2c[nH]c3ccccc23)C(=O)N[C@@H](C(C)C)C(=O)N[C@@H](Cc2ccccc2)C(=O)N[C@@H](C(C)C)C(=O)O[C@@H]1C)C(C)C)C(C)C` (H-[NMeV]VT[NMeT]V[NMeL]V[Hyp][NMeW]VFV; ester 3-C) the MIC [1] was 8 µM (≈ 11.3 µg/mL).
`NNC(=O)c1ccncc1` was tested, and the Activity [3] was “inactive”.
Compound `CN[C@H](C(=O)N[C@H](C(=O)N[C@@H]1C(=O)N(C)[C@@H]([C@@H](C)O)C(=O)N[C@@H](C(C)C)C(=O)N(C)[C@@H](CC(C)C)C(=O)N[C@@H](C(C)C)C(=O)N(C)CC(=O)N(C)[C@@H](Cc2c[nH]c3ccccc23)C(=O)N[C@@H](C(C)C)C(=O)N[C@@H](Cc2ccccc2)C(=O)N[C@@H](C(C)C)C(=O)O[C@@H]1C)C(C)C)C(C)C` (H-[NMeV]VT[NMeT]V[NMeL]V[Sar][NMeW]VFV; ester 3-C) has an MIC [1] of 8 µM (≈ 11 µg/mL).
For `CN[C@H](C(=O)N[C@H](C(=O)N[C@@H]1C(=O)N(C)[C@@H]([C@@H](C)O)C(=O)N[C@@H](C(C)C)C(=O)N(C)[C@@H](CC(C)C)C(=O)N[C@@H](C(C)C)C(=O)N(C)[C@@H](CO)C(=O)N(C)[C@@H](Cc2c[nH]c3ccccc23)C(=O)N[C@@H](C(C)C)C(=O)N[C@@H](Cc2ccccc2)C(=O)N[C@@H](C(C)C)C(=O)O[C@@H]1C)C(C)C)C(C)C` (H-[NMeV]VT[NMeT]V[NMeL]V[NMeS][NMeW]VFV; ester 3-C), the MIC [1] was 2 µM (≈ 2.8 µg/mL).
